Data published in patent US5998462A, “5-alkyl indole compounds” (Allelix Biopharmaceuticals Inc., priority 1996, dated 1999).
Like-named read-outs stand apart in the source and are kept apart here.

Target: T1, 5-HT1D-like receptor (Oryctolagus cuniculus, UniProt P49144)
T1 construct: Ring segments of the vein (4-5 mm in length) were cut and the endothelium gently removed; from tissue; host or cells: saphenous vein rings, endothelium removed, male New Zealand White rabbits
Test: Agonist assay: contraction of rabbit isolated saphenous vein (5-HT1D-like receptor agonist activity)
Design: species or system rabbit (New Zealand White)
Procedure: The saphenous veins from both the left and right side were cleaned of fat and connective tissue and placed in Krebs solution (118 mM NaCl, 11 mM glucose, 25 mM NaHCO3, 4.7 mM KCl, 2.5 mM CaCl2.2H2 O, 1.2 mM KH2 PO4, and 1.2 mM MgSO4.7H2 O. Ring segments of the vein (4-5 mm in length) were cut and the endothelium gently removed. The segments were mounted in 10 mL baths containing Krebs buffer and were constantly aerated with 95% oxygen/5% carbon dioxide and maintained at 37° C. and pH 7.4 in order to record the isometric tension. A resting tension of 2.5 g was applied and the tissues allowed to equilibrate for 90 minutes, with washing every 15-20 minutes. After the equilibrium period, the rings were depolarized by the addition of two aliquots of KCl (80 mM final concentration) separated by a 20 minute washing period. The tissues were then exposed to prazosin, idazoxan and indomethacin (all 1 μM final concentration) for 30 minutes in order to exclude the actions of α1 - and α2 -adrenergic receptors and prostaglandin receptors respectively. […] Responses were calculated as a percentage of the maximal contraction evoked by 80 mM KCl. Only one compound was tested per preparation.
EC50 represents the concentration of the compound which causes 50% of the maximum contraction effected by it.

[1] = rabbit isolated saphenous vein rings, 37° C., pH 7.4, prazosin, idazoxan and indomethacin 1 μM present, read-out: EC50 (concentration of the compound which causes 50% of the maximum contraction effected by it)

T1 sequence (P49144 whole entry): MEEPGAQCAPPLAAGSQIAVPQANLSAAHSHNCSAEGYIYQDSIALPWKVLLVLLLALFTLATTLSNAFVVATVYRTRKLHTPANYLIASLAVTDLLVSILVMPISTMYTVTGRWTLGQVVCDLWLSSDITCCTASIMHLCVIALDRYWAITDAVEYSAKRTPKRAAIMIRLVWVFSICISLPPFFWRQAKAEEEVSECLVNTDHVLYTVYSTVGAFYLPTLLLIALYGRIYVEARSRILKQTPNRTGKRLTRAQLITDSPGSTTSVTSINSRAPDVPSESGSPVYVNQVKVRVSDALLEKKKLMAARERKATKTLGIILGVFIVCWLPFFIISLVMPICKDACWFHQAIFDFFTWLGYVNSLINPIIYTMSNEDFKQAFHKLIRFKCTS

Compound | EC50 [nM] | EC50 [1] [nM]
Cc1ccc2[nH]cc(C[C@H]3CCCN3C)c2c1 [Example 7e, (R)-3-[(N-Methylpyrrolidin-2-yl)methyl]-5-methyl-1H-indole] | 100 | –
CN1CCC[C@@H]1Cc1c[nH]c2ccc(C(C)(C)C)cc12 [Example 7f, (R)-3-[(N-Methylpyrrolidin-2-yl)methyl]-5-tert-butyl-1H-indole] | 52 | –
CC(C)c1ccc2[nH]cc(C[C@H]3CCCN3C)c2c1 [Example 7g, (R)-3-[(N-Methylpyrrolidin-2-yl)methyl]-5-isopropyl-1H-indole] | 29 | –
Cc1ccc2[nH]cc(C[C@@H]3CCCN3C)c2c1 [Example 7h, (S)-3-[(N-Methylpyrrolidin-2-yl)methyl]-5-methyl-1H-indole] | 1800 | –
Cc1ccc2[nH]cc(C3CCN(C)C3)c2c1 (stereo not drawn) [Example 7i, 5-Methyl-3-(N-methylpyrrolidin-3-yl)-1H-indole] | – | 470
Cc1ccc2[nH]cc(C[C@H]3CCCN3)c2c1 [Example 7j, (R)-5-Methyl-3-[(pyrrolidin-2-yl)methyl]-1H-indole] | 830 | –
CC(C)c1ccc2[nH]cc(CCN3CCCC3)c2c1 [Example 8a, 5-Isopropyl-3-(2-pyrrolidinylethyl)-1H-indole] | 250 | –
CC(C)(C)c1ccc2[nH]cc(CCN3CCCC3)c2c1 [Example 8b, 5-Tert-butyl-3-(2-pyrrolidinylethyl)-1H-indole] | 1200 | –
Cc1ccc2[nH]cc(CCN3CCCC3)c2c1 [Example 8c, 5-Methyl-3-(2-pyrrolidinylethyl)-1H-indole] | 590 | –
Cc1ccc2[nH]cc(CCN3CC=CC3)c2c1 [Example 8d, 5-Methyl-3-(2-pyrrolinylethyl)-1H-indole] | 2900 | –
CCc1ccc2[nH]cc(C[C@H]3CCCN3C)c2c1 [Example 11b, (R)-5-Ethyl-3-[(N-methylpyrrolidin-2-yl)methyl]-1 H-indole] | 15 | –
CCc1ccc2[nH]cc(C3CCN(C)C3)c2c1 (stereo not drawn) [Example 11c, 5-Ethyl-3-(N-methylpyrrolidin-3-yl)-1H-indole] | – | 900
